We go through one molecule from PMC5911580, “YL143, a novel mutant selective irreversible EGFR inhibitor, overcomes EGFR^L858R, T790M‐mutant resistance in vitro and in vivo” (Cancer Medicine, 2018).

“Also recorded” adds a separate entry of the source.

One data set deals with T1, EGFR^Del 19 (Homo sapiens, UniProt P00533, DEL746-750).
T1 construct: purchased Invitrogen
Put plainly: FRET-based Z'-Lyte kinase assay, EGFR Del 19. It is filed as biochemical. The following applies: AV ± SD; 1.5 h incubation. The procedure:
The kinase activity assay was performed and optimized according to the instructions of Z’‐LYTE™ kinase assay kits from the manufacturer (PV4879, Life, America). In our experiments, 10 concentration gradients from 0.01 nmol/L to 1.0 μmol/L were used for all the compounds.

A further data set addresses PDGFRB (Homo sapiens, UniProt P09619). Put plainly: Z'-Lyte kinase panel, PDGFRB. It is filed as biochemical. To be noted: 1.5 hrs incubation. The procedure:
(§1) Kinase activity assays were performed using the FRET-based Z′-Lyte assay according to the manufacturer’s instructions. The compounds were incubated with the kinase reaction mixture for 1.5 hrs before measurement. The data are means from two independent experiments and the variations are below 20%.

In another data set the target is Kit (Homo sapiens, UniProt P10721). Put plainly: Z'-Lyte kinase panel, Kit. In kind it is biochemical. To be noted: 1.5 hrs incubation. On the procedure: as §1
Sequence of Kit (P10721 26-976, species assumed): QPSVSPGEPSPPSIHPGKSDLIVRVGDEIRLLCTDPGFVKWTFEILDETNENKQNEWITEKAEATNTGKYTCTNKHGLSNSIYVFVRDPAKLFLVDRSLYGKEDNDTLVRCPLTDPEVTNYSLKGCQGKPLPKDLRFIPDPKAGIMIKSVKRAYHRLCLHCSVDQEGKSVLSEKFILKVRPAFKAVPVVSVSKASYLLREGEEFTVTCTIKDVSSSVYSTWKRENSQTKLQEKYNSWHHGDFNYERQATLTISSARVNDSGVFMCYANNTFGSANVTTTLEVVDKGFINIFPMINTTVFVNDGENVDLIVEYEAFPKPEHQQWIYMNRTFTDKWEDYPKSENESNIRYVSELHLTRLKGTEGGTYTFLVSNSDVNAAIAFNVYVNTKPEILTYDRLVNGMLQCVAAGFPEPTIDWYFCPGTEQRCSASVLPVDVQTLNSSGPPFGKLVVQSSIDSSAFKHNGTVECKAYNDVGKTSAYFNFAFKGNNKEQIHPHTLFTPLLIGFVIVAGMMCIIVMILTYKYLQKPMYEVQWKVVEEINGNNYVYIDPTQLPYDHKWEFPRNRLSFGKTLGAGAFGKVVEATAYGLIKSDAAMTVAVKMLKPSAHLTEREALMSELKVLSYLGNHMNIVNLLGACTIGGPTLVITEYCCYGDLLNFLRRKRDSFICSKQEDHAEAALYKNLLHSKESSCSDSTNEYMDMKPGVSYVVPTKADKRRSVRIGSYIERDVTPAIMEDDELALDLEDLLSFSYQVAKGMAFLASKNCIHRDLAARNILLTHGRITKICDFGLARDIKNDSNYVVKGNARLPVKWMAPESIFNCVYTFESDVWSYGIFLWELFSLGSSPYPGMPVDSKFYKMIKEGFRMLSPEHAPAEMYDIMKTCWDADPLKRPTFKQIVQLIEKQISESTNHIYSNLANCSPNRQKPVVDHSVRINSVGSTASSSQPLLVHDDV
The subject of a further data set is H1975 xenograft. Put plainly: H1975 tumor xenograft in CB17-SCID mice. The following applies: 30 mg/kg, po, qd. In kind it is in vivo. On the procedure: Male CB17‐SCID mice were purchased from Vital River Laboratory Animal Technology Inc. (Beijing, China). H1975 cells (5 × 10^6/mouse) were injected subcutaneously in the right flanks of mice. […] All the compounds were suspended in 0.5% CMC‐Na aqueous solution. The tumor volume and body weight of animals were measured once every 2 days. Tumor volume was calculated as the L × W ^2/2 (L and W are the length and width of the tumor, respectively). All animal experiments were approved by the Institutional Animal Use and Care Committee of Guangzhou Institute of Biomedicine and Health, Chinese Academy of Science.

Sequence of PDGFRB (P09619 33-1106, species assumed): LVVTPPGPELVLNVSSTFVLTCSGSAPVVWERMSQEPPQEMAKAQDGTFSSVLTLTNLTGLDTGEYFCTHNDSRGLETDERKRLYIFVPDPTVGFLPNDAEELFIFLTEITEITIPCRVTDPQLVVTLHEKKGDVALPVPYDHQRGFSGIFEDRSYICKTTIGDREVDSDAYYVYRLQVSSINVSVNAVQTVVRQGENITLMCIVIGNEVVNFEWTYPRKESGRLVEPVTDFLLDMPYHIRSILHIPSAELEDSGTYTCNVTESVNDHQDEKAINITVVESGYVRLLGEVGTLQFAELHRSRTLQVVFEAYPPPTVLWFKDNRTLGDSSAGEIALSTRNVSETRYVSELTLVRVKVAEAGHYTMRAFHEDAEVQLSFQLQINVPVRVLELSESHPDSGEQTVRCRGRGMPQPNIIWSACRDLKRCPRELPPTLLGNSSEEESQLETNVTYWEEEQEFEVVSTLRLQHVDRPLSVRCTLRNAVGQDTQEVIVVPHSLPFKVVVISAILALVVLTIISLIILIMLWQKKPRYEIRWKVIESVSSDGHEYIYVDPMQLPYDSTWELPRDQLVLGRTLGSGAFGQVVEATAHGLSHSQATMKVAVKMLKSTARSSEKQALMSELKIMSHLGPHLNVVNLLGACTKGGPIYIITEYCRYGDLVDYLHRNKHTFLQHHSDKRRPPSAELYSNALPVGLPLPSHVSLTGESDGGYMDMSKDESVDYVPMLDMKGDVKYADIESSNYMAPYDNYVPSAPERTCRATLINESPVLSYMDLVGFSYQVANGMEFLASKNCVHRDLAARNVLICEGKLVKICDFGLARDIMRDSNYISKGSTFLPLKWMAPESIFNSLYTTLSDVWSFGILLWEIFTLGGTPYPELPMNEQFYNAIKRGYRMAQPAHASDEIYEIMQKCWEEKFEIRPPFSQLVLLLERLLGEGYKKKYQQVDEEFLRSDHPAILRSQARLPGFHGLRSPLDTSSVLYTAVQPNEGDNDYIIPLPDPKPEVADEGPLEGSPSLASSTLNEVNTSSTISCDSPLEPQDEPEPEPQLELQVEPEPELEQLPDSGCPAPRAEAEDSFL
T1 sequence (P00533 with tags, fused parts or gaps DEL746-750): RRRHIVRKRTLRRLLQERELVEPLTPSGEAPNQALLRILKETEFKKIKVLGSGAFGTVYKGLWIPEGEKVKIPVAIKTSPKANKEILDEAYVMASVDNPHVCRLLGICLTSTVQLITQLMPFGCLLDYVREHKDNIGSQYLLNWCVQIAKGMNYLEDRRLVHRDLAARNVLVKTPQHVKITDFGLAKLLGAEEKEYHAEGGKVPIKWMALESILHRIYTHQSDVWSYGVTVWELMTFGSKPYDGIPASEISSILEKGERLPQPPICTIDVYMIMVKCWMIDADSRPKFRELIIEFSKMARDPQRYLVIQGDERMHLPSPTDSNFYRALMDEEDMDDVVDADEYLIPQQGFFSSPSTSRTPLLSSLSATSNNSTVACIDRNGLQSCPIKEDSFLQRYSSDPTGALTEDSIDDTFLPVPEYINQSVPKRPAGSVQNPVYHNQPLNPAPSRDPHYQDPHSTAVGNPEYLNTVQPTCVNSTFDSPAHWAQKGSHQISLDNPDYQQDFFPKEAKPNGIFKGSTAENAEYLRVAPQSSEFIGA

As a reminder, the IC50 is the concentration at which inhibition is half-maximal. On EGFR^Del 19, `C=CC(=O)Nc1cc(C)cc(-n2c(=O)cc(C)c3cnc(Nc4ccc(N5CCN(C)CC5)cc4OC)nc32)c1` [YL143, N‐(3‐(2‐((2‐Methoxy‐4‐(4‐methylpiperazin‐1‐yl)phenyl)amino)‐5‐methyl‐7‐oxopyrido [2,3‐d]pyrimidin‐8(7H)‐yl)‐5‐methylphenyl)acrylamide] yielded an IC50 of 0.0815 ± 0.0103 µM. Moreover, on PDGFRB, the 50% inhibitory concentration (IC50) is greater than 10 µM. The molecule also gave a 50% inhibitory concentration (IC50) against Kit greater than 10 µM. In the data set with H1975 xenograft (18 days), the “TUNEL stain of the tumor tissue” value was “induced apoptosis”; the antitumor efficacy entry is given as “promising antitumor efficacy; also recorded: comparable in vivo antitumor effect to that of CO1686”; the “tolerability (mortality, body weight)” value is on record as “well tolerated; also recorded: without significantly toxic signs”. Moreover, the “hyperglycemia side effect (blood glucose)” value in the data set with H1975 xenograft (day 7 and 14, compared with CO1686) is on record as “weaker hyperglycemia side effect”.
